# According to ChEMBL document CHEMBL4402510, “Caprazamycins: Promising lead structures acting on a novel antibacterial target MraY” (Eur J Med Chem, 2019):
# Legend:
# Escherichia coli [1] = test: Antibacterial activity against Escherichia coli expressing MraY; type: functional, organism-based
# Staphylococcus aureus [2] = test: Antibacterial activity against methicillin resistant Staphylococcus aureus MS16526; type: functional
# Mycolicibacterium vaccae = test: Antibacterial activity against Mycobacterium vaccae ATCC 15483; type: functional
# [3] = system: Mycobacterium tuberculosis; test: Antibacterial activity against Mycobacterium tuberculosis Kurono; type: functional
# [4] = system: Mycobacterium tuberculosis; test: Antibacterial activity against Mycobacterium tuberculosis H37Rv; type: functional
# Bacillus subtilis = test: Antibacterial activity against Bacillus subtilis PCI 219; type: functional
# [5] = system: Mycobacterium tuberculosis; test: Antibacterial activity against Mycobacterium tuberculosis JCM 6384; type: functional
# Staphylococcus aureus [6] = test: Antibacterial activity against methicillin resistant Staphylococcus aureus No. 5; type: functional
# Escherichia coli [7] = test: Antibacterial activity against Escherichia coli K-12; type: functional
# Staphylococcus aureus [8] = test: Antibacterial activity against Staphylococcus aureus FDA 209P; type: functional
# Mycolicibacterium phlei = test: Antibacterial activity against Mycobacterium phlei; type: functional
# [9] = Antibacterial activity against Mycobacterium avium subsp. avium ATCC 25291; type: functional
# [10] = system: Mycobacterium avium subsp. paratuberculosis; test: Antibacterial activity against Mycobacterium avium subsp. paratuberculosis ATCC 43015; type: functional
# [11] = system: Mycolicibacterium smegmatis; test: Antibacterial activity against Mycobacterium smegmatis ATCC 607; type: functional
SMILES,IC50 (Escherichia coli [1]) [µM],MIC (Staphylococcus aureus [2]) [µg/mL],MIC (Mycolicibacterium vaccae) [µg/mL],MIC [3] [µg/mL],MIC [4] [µg/mL],MIC (Bacillus subtilis) [µg/mL],MIC [5] [µg/mL],MIC (Staphylococcus aureus [6]) [µg/mL],MIC (Escherichia coli [7]) [µg/mL],MIC (Staphylococcus aureus [8]) [µg/mL],MIC (Mycolicibacterium phlei) [µg/mL],MIC [9] [µg/mL],MIC [10] [µg/mL],MIC [11] [µg/mL]
NC[C@H]1O[C@@H](OC[C@H]2O[C@@H](n3ccc(=O)[nH]c3=O)[C@H](O)[C@@H]2O)C[C@@H]1O,115,–,–,–,–,–,–,–,–,–,–,–,–,–
CCCCCCCCCCCCCCc1ccc(NC(=O)C2=CCN(C)[C@@H]([C@H](O[C@@H]3O[C@H](CN)[C@@H](O)[C@H]3O)[C@H]3O[C@@H](n4ccc(=O)[nH]c4=O)[C@H](O)[C@@H]3O)C(=O)N2C)cc1,–,0.39,6.25,3.13,3.13,> 100,0.78,12.5,> 100,12.5,3.13,6.25,0.39,6.25
CCCCCCCOc1ccc(NC(=O)C2=CCN(C)[C@@H]([C@H](O[C@@H]3O[C@H](CN)[C@@H](O)[C@H]3O)[C@H]3O[C@@H](n4ccc(=O)[nH]c4=O)[C@H](O)[C@@H]3O)C(=O)N2C)cc1,–,< 0.2,6.25,0.78,0.78,50,0.1,25,3.13,25,3.13,0.78,0.2,0.78
N=C(N)NC[C@H]1O[C@@H](OC[C@H]2O[C@@H](n3ccc(=O)[nH]c3=O)[C@H](O)[C@@H]2O)[C@H](O)[C@@H]1O,25,–,–,–,–,–,–,–,–,–,–,–,–,–
CCc1ccc(NC(=O)C2=CCN(C)[C@@H]([C@H](O[C@@H]3O[C@H](CN)[C@@H](O)[C@H]3O)[C@H]3O[C@@H](n4ccc(=O)[nH]c4=O)[C@H](O)[C@@H]3O)C(=O)N2C)cc1,–,–,> 100,3.13,6.25,–,> 100,> 100,–,> 100,12.5,100,> 100,> 100
CCCCCCCCCCOC(=O)C1=CCN(C)[C@@H]([C@H](O[C@@H]2O[C@H](CN)[C@@H](O)[C@H]2O)[C@H]2O[C@@H](n3ccc(=O)[nH]c3=O)[C@H](O)[C@@H]2O)C(=O)N1C,–,–,0.78,12.5,12.5,–,50,–,–,> 100,> 100,12.5,12.5,50
C[N+](C)(C)C[C@H]1O[C@@H](OC[C@H]2O[C@@H](n3ccc(=O)[nH]c3=O)[C@H](O)[C@@H]2O)[C@H](O)[C@@H]1O,> 1000,–,–,–,–,–,–,–,–,–,–,–,–,–
NC[C@H]1O[C@@H](O[C@H](CO)[C@H]2O[C@@H](n3ccc(=O)[nH]c3=O)[C@H](O)[C@@H]2O)[C@H](O)[C@@H]1O,425,–,–,–,–,–,–,–,–,–,–,–,–,–
CCCCCCCc1ccc(NC(=O)C2=CCN(C)[C@@H]([C@H](O[C@@H]3O[C@H](CN)[C@@H](O)[C@H]3O)[C@H]3O[C@@H](n4ccc(=O)[nH]c4=O)[C@H](O)[C@@H]3O)C(=O)N2C)cc1,–,50,1.56,0.78,0.78,6.25,0.1,< 0.2,–,12.5,25,1.56,0.05,< 0.2
CCCCOc1ccc(NC(=O)C2=CCN(C)[C@@H]([C@H](O[C@@H]3O[C@H](CN)[C@@H](O)[C@H]3O)[C@H]3O[C@@H](n4ccc(=O)[nH]c4=O)[C@H](O)[C@@H]3O)C(=O)N2C)cc1,–,3.13,100,3.13,1.56,> 100,0.78,> 100,> 100,> 100,> 100,3.13,0.78,25
CC/C=C/CCCCCCCCCCOC(=O)C1=CCN(C)[C@@H]([C@H](O[C@@H]2O[C@H](CN)[C@@H](O)[C@H]2O)[C@H]2O[C@@H](n3ccc(=O)[nH]c3=O)[C@H](O)[C@@H]2O)C(=O)N1C,–,25,25,6.25,12.5,–,12.5,> 100,–,0.78,12.5,25,6.25,6.25
CCCCCCCCCCCCCCCCCCCCCNC(=O)C1=CCN(C)[C@@H]([C@H](O[C@@H]2O[C@H](CN)[C@@H](O)[C@H]2O)[C@H]2O[C@@H](n3ccc(=O)[nH]c3=O)[C@H](O)[C@@H]2O)C(=O)N1C,–,> 100,12.5,0.78,1.56,–,> 100,> 100,–,1.56,12.5,50,> 100,6.25
C=CCCCCCCCCCOC(=O)C1=CCN(C)[C@@H]([C@H](O[C@@H]2O[C@H](CN)[C@@H](O)[C@H]2O)[C@H]2O[C@@H](n3ccc(=O)[nH]c3=O)[C@H](O)[C@@H]2O)C(=O)N1C,–,> 100,50,12.5,12.5,–,12.5,> 100,–,1.56,50,12.5,6.25,25
CCCCCCCC/C=C/CCCCCCCCNC(=O)C1=CCN(C)[C@@H]([C@H](O[C@@H]2O[C@H](CN)[C@@H](O)[C@H]2O)[C@H]2O[C@@H](n3ccc(=O)[nH]c3=O)[C@H](O)[C@@H]2O)C(=O)N1C,–,0.78,1.56,3.13,3.13,> 100,1.56,6.25,> 100,6.25,1.56,6.25,0.78,1.56
CCCCCCc1ccc(NC(=O)C2=CCN(C)[C@@H]([C@H](O[C@@H]3O[C@H](CN)[C@@H](O)[C@H]3O)[C@H]3O[C@@H](n4ccc(=O)[nH]c4=O)[C@H](O)[C@@H]3O)C(=O)N2C)cc1,–,–,12.5,0.78,0.78,–,6.25,12.5,–,> 100,0.39,0.2,0.78,1.56
CCCCCCCCCCCCCCCCCCCCNC(=O)C1=CCN(C)[C@@H]([C@H](O[C@@H]2O[C@H](CN)[C@@H](O)[C@H]2O)[C@H]2O[C@@H](n3ccc(=O)[nH]c3=O)[C@H](O)[C@@H]2O)C(=O)N1C,–,–,12.5,1.56,1.56,–,> 100,> 100,–,> 100,1.56,25,50,6.25
CCCCCCCCCCCCCCCCCNC(=O)C1=CCN(C)[C@@H]([C@H](O[C@@H]2O[C@H](CN)[C@@H](O)[C@H]2O)[C@H]2O[C@@H](n3ccc(=O)[nH]c3=O)[C@H](O)[C@@H]2O)C(=O)N1C,–,–,> 100,6.25,3.13,–,6.25,–,–,–,> 100,1.56,6.25,1.56
CCCCCCCCCCCCCOC(=O)C1=CCN(C)[C@@H]([C@H](O[C@@H]2O[C@H](CN)[C@@H](O)[C@H]2O)[C@H]2O[C@@H](n3ccc(=O)[nH]c3=O)[C@H](O)[C@@H]2O)C(=O)N1C,–,> 100,3.13,50,6.25,25,12.5,0.78,–,12.5,25,3.13,12.5,6.25
